# From ChEMBL document CHEMBL1201861, “Genomics of Drug Sensitity in Cancer screening data, Wellcome Trust Sanger Institute”
# Experiments:
# Experiment in all cases: cells
# NCI-H1650 = type: functional, cell-based, Homo sapiens; conditions: Homo sapiens, NCI-H1650;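 note: growth inhibition of human NCI-H1650 cells measured by a cell viability assay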
# Description: SANGER: Inhibition of human NCI-H1650 cell growth in a cell viability assay.
# KM12 = type: functional, cell-based, Homo sapiens; conditions: Homo sapiens, KM12;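 note: KM12 cell growth inhibition, read out with a cell viability assay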
# Description: SANGER: Inhibition of human KM12 cell growth in a cell viability assay.
# A253 cell line = type: functional, cell-based, Homo sapiens; conditions: Homo sapiens, A253;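 note: growth inhibition of A253 cells, read out with a cell viability assay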
# Description: SANGER: Inhibition of human A253 cell growth in a cell viability assay.
# GR-ST = type: functional, cell-based, Homo sapiens; conditions: Homo sapiens, GR-ST
# Description: SANGER: Inhibition of human GR-ST cell growth in a cell viability assay.
# SK-N-DZ = type: functional, cell-based, Homo sapiens; conditions: Homo sapiens, SK-N-DZ; read-out: IC50;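 note: growth inhibition of the cancer cell line, read out through a viability assay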
# Description: SANGER: Inhibition of human SK-N-DZ cell growth in a cell viability assay.
# NH-12 = type: functional, cell-based, Homo sapiens; conditions: Homo sapiens, NH-12;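 note: growth inhibition of NH-12 cells, read out with a cell viability assay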
# Description: SANGER: Inhibition of human NH-12 cell growth in a cell viability assay.
# EKVX = type: functional, cell-based, Homo sapiens; conditions: Homo sapiens, EKVX;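 note: growth inhibition of human EKVX cells, read out with a cell viability assay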
# Description: SANGER: Inhibition of human EKVX cell growth in a cell viability assay.
# LXF-289 cell line = type: functional, cell-based; conditions: Homo sapiens
# Description: SANGER: Inhibition of human LXF-289 cell growth in a cell viability assay.
# SK-LMS-1 = type: functional, cell-based, Homo sapiens; conditions: Homo sapiens, SK-LMS-1;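 note: growth inhibition of human SK-LMS-1 cells, read out with a cell viability assay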
# Description: SANGER: Inhibition of human SK-LMS-1 cell growth in a cell viability assay.
# MHH-PREB-1 = type: functional, cell-based, Homo sapiens; conditions: Homo sapiens, MHH-PREB-1;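 note: cell viability assay measuring inhibition of proliferation of human MHH-PREB-1 cells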
# Description: SANGER: Inhibition of human MHH-PREB-1 cell growth in a cell viability assay.
# MHH-NB-11 = type: functional, cell-based, Homo sapiens; conditions: Homo sapiens, MHH-NB-11;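 note: growth inhibition of human MHH-NB-11 cells, read out by a cell viability assay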
# Description: SANGER: Inhibition of human MHH-NB-11 cell growth in a cell viability assay.
# TE-10 = type: functional, cell-based, Homo sapiens; conditions: Homo sapiens, TE-10;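 note: growth inhibition of TE-10 cells, measured by a cell viability assay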
# Description: SANGER: Inhibition of human TE-10 cell growth in a cell viability assay.
# KG-1 = type: functional, cell-based, Homo sapiens; conditions: Homo sapiens, KG-1;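 note: growth inhibition of KG-1 cells, read out by a cell viability assay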
# Description: SANGER: Inhibition of human KG-1 cell growth in a cell viability assay.
# NEC8 = type: functional, cell-based, Homo sapiens; conditions: Homo sapiens, NEC8;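 note: growth inhibition of human NEC8 cells, read out by a cell viability assay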
# Description: SANGER: Inhibition of human NEC8 cell growth in a cell viability assay.
# MV4-11 = type: functional, cell-based, Homo sapiens, MV-4-11; conditions: Homo sapiens, MV4-11;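 note: cell viability readout measuring growth inhibition of human MV-4-11 cells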
# Description: SANGER: Inhibition of human MV-4-11 cell growth in a cell viability assay.
# LS-1034 = type: functional, cell-based, Homo sapiens; conditions: Homo sapiens, LS-1034
# Description: SANGER: Inhibition of human LS-1034 cell growth in a cell viability assay.
# SJSA-1 = type: functional, cell-based, Homo sapiens; conditions: Homo sapiens, SJSA-1;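 note: growth inhibition of human SJSA-1 cells, read out through a cell viability measurement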
# Description: SANGER: Inhibition of human SJSA-1 cell growth in a cell viability assay.
# NCI-H23 = type: functional, cell-based, Homo sapiens; conditions: Homo sapiens, NCI-H23;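 note: cell viability assay measuring growth inhibition of NCI-H23 cells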
# Description: SANGER: Inhibition of human NCI-H23 cell growth in a cell viability assay.
# J-RT3-T3-5 = type: functional, cell-based, Homo sapiens; conditions: Homo sapiens, J-RT3-T3-5;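 note: cell viability assay measuring growth inhibition of human J-RT3-T3-5 cells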
# Description: SANGER: Inhibition of human J-RT3-T3-5 cell growth in a cell viability assay.
# Lu-65 = type: functional, cell-based, Homo sapiens; conditions: Homo sapiens, Lu-65;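 note: growth inhibition of Lu-65 cancer cells, read out by a cell viability assay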
# Description: SANGER: Inhibition of human LU-65 cell growth in a cell viability assay.
# KALS-1 = type: functional, cell-based, Homo sapiens; conditions: Homo sapiens, KALS-1; read-out: IC50;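 note: growth inhibition of KALS-1 cells, determined with a cell viability assay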
# Description: SANGER: Inhibition of human KALS-1 cell growth in a cell viability assay.
# PSN1 = type: functional, cell-based, Homo sapiens; conditions: Homo sapiens, PSN1;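 note: suppression of growth of human PSN1 cells, read out by a cell viability assay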
# Description: SANGER: Inhibition of human PSN1 cell growth in a cell viability assay.
# UACC-257 = type: functional, cell-based, Homo sapiens; conditions: Homo sapiens, UACC-257
# Description: SANGER: Inhibition of human UACC-257 cell growth in a cell viability assay.
# COLO-829 = type: functional, cell-based, Homo sapiens; conditions: Homo sapiens, COLO-829
# Description: SANGER: Inhibition of human COLO-829 cell growth in a cell viability assay.
# KP-N-YS = type: functional, cell-based, Homo sapiens; conditions: Homo sapiens, KP-N-YS;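 note: cell viability assay measuring inhibition of cell line growth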
# Description: SANGER: Inhibition of human KP-N-YS cell growth in a cell viability assay.
# LB831-BLC = type: functional, cell-based, Homo sapiens; conditions: Homo sapiens, LB831-BLC;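 note: growth inhibition of LB831-BLC cells, read out with a cell viability assay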
# Description: SANGER: Inhibition of human LB831-BLC cell growth in a cell viability assay.
# ONS-76 = type: functional, cell-based, Homo sapiens; conditions: Homo sapiens, ONS-76;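 note: growth inhibition of human ONS-76 cells, read out with a cell viability assay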
# Description: SANGER: Inhibition of human ONS-76 cell growth in a cell viability assay.
# RCC10RGB = type: functional, cell-based, Homo sapiens; conditions: Homo sapiens, RCC10RGB;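 note: growth inhibition of human RCC10RGB cells, read out by a cell viability assay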
# Description: SANGER: Inhibition of human RCC10RGB cell growth in a cell viability assay.
# RPMI-8226 = type: functional, cell-based, Homo sapiens; conditions: Homo sapiens, RPMI-8226
# Description: SANGER: Inhibition of human RPMI-8226 cell growth in a cell viability assay.
# BB49-HNC = type: functional, cell-based, Homo sapiens; conditions: Homo sapiens, BB49-HNC;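 note: cell viability assay read-out, reported as inhibition of BB49-HNC cell growth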
# Description: SANGER: Inhibition of human BB49-HNC cell growth in a cell viability assay.
# U-87 MG = type: functional, cell-based, Homo sapiens, U-87MG ATCC; conditions: Homo sapiens, U-87 MG;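 note: growth inhibition of the cells measured with a viability assay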
# Description: SANGER: Inhibition of human U-87-MG cell growth in a cell viability assay.
# CW-2 = type: functional, cell-based, Homo sapiens; conditions: Homo sapiens, CW-2;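 note: growth inhibition of CW-2 cells, read out by a cell viability assay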
# Description: SANGER: Inhibition of human CW-2 cell growth in a cell viability assay.
# HD-MY-Z = type: functional, cell-based, Homo sapiens; conditions: Homo sapiens, HD-MY-Z;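 note: growth inhibition of HD-MY-Z cells, read out with a cell viability assay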
# Description: SANGER: Inhibition of human HD-MY-Z cell growth in a cell viability assay.
# KNS-81-FD = type: functional, cell-based, Homo sapiens; conditions: Homo sapiens, KNS-81-FD;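 note: growth inhibition of KNS-81-FD cells, read out with a cell viability assay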
# Description: SANGER: Inhibition of human KNS-81-FD cell growth in a cell viability assay.
# HL-60 = type: functional, cell-based, Homo sapiens; conditions: Homo sapiens, HL-60;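 note: growth inhibition of human HL-60 cells, read out with a cell viability assay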
# Description: SANGER: Inhibition of human HL-60 cell growth in a cell viability assay.
# K5 = type: functional, cell-based, Homo sapiens; conditions: Homo sapiens, K5
# Description: SANGER: Inhibition of human K5 cell growth in a cell viability assay.
# HT-144 = type: functional, cell-based, Homo sapiens; conditions: Homo sapiens, HT-144
# Description: SANGER: Inhibition of human HT-144 cell growth in a cell viability assay.
# DEL = type: functional, cell-based, Homo sapiens; conditions: Homo sapiens, DEL;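 note: growth inhibition of the human DEL cell line, read out with a cell viability assay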
# Description: SANGER: Inhibition of human DEL cell growth in a cell viability assay.
# AM-38 = type: functional, cell-based, Homo sapiens; conditions: Homo sapiens, AM-38;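 note: growth inhibition of AM-38 cells of human origin, read out by a cell viability assay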
# Description: SANGER: Inhibition of human AM-38 cell growth in a cell viability assay.
# NCI-H720 = type: functional, cell-based, Homo sapiens; conditions: Homo sapiens, NCI-H720;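 note: growth inhibition of human NCI-H720 cells determined by a cell viability assay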
# Description: SANGER: Inhibition of human NCI-H720 cell growth in a cell viability assay.
# SK-PN-DW = type: functional, cell-based, Homo sapiens; conditions: Homo sapiens, SK-PN-DW;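 note: growth inhibition measured with a viability assay on these cells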
# Description: SANGER: Inhibition of human SK-PN-DW cell growth in a cell viability assay.
# CCRF-CEM = type: functional, cell-based, Homo sapiens; conditions: Homo sapiens, CCRF-CEM;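 note: inhibition of CCRF-CEM cell growth, measured by a cell viability assay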
# Description: SANGER: Inhibition of human CCRF-CEM cell growth in a cell viability assay.
# MOLT-4 = type: functional, cell-based, Homo sapiens; conditions: Homo sapiens, MOLT-4;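 note: growth inhibition of MOLT-4 cells, determined with a cell viability readout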
# Description: SANGER: Inhibition of human MOLT-4 cell growth in a cell viability assay.
# D283 Med = type: functional, cell-based, Homo sapiens; conditions: Homo sapiens, D283 Med
# Description: SANGER: Inhibition of human D-283MED cell growth in a cell viability assay.
# HCC1187 = type: functional, cell-based, Homo sapiens; conditions: Homo sapiens, HCC1187;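 note: growth inhibition of HCC1187 cells, read out with a cell viability assay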
# Description: SANGER: Inhibition of human HCC1187 cell growth in a cell viability assay.
# GI-ME-N = type: functional, cell-based, Homo sapiens; conditions: Homo sapiens, GI-ME-N;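 note: growth inhibition of human GI-ME-N cells, read out with a cell viability assay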
# Description: SANGER: Inhibition of human GI-ME-N cell growth in a cell viability assay.
# MEG-01 = type: functional, cell-based, Homo sapiens; conditions: Homo sapiens, MEG-01;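 note: growth inhibition of MEG-01 cells, read out by a cell viability assay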
# Description: SANGER: Inhibition of human MEG-01 cell growth in a cell viability assay.
# LB996-RCC = type: functional, cell-based, Homo sapiens; conditions: Homo sapiens, LB996-RCC
# Description: SANGER: Inhibition of human LB996-RCC cell growth in a cell viability assay.
smiles,measurement,setting,value
OC[C@H](Cc1ccccc1)Nc1nc(Oc2ccc3c(c2)CCC3)nc2c1ncn2Cc1ccc(-c2ccccc2)cc1,IC50,NCI-H1650,> 10200 nM
same,IC50,KM12,> 10200 nM
same,IC50,A253 cell line,> 10200 nM
same,IC50,GR-ST,5510 nM
same,IC50,SK-N-DZ,2230 nM
same,IC50,NH-12,> 10200 nM
same,IC50,EKVX,> 10200 nM
same,IC50,LXF-289 cell line,7610 nM
same,IC50,SK-LMS-1,2940 nM
same,IC50,MHH-PREB-1,> 10200 nM
same,IC50,MHH-NB-11,> 10200 nM
same,IC50,TE-10,7510 nM
same,IC50,KG-1,> 10200 nM
same,IC50,NEC8,> 10200 nM
same,IC50,MV4-11,5510 nM
same,IC50,LS-1034,> 10200 nM
same,IC50,SJSA-1,2560 nM
same,IC50,NCI-H23,> 10200 nM
same,IC50,J-RT3-T3-5,> 10200 nM
same,IC50,Lu-65,> 10200 nM
same,IC50,KALS-1,> 10200 nM
same,IC50,PSN1,2830 nM
same,IC50,UACC-257,> 10200 nM
same,IC50,COLO-829,> 10200 nM
same,IC50,KP-N-YS,7600 nM
same,IC50,LB831-BLC,> 10200 nM
same,IC50,ONS-76,8580 nM
same,IC50,RCC10RGB,> 10200 nM
same,IC50,RPMI-8226,> 10200 nM
same,IC50,BB49-HNC,> 10200 nM
same,IC50,U-87 MG,> 10200 nM
same,IC50,CW-2,> 10200 nM
same,IC50,HD-MY-Z,> 10200 nM
same,IC50,KNS-81-FD,> 10200 nM
same,IC50,HL-60,> 10200 nM
same,IC50,K5,> 10200 nM
same,IC50,HT-144,8540 nM
same,IC50,DEL,> 10200 nM
same,IC50,AM-38,> 10200 nM
same,IC50,NCI-H720,> 10200 nM
same,IC50,SK-PN-DW,5480 nM
same,IC50,CCRF-CEM,5760 nM
same,IC50,MOLT-4,> 10200 nM
same,IC50,D283 Med,> 10200 nM
same,IC50,HCC1187,> 10200 nM
same,IC50,GI-ME-N,> 10200 nM
same,IC50,MEG-01,4600 nM
same,IC50,LB996-RCC,> 10200 nM
NC(=O)c1cccc(-c2cc(Nc3ccc(OC(F)(F)F)cc3)ncn2)c1,IC50,NCI-H1650,> 1280 nM
same,IC50,KM12,> 1280 nM
same,IC50,A253 cell line,> 1280 nM
same,IC50,GR-ST,> 1280 nM
same,IC50,SK-N-DZ,> 1280 nM
same,IC50,NH-12,> 1280 nM
same,IC50,EKVX,> 1280 nM
same,IC50,LXF-289 cell line,> 1280 nM
same,IC50,SK-LMS-1,> 1280 nM
same,IC50,MHH-PREB-1,> 1280 nM
same,IC50,MHH-NB-11,> 1280 nM
same,IC50,TE-10,> 1280 nM
same,IC50,KG-1,> 1280 nM
same,IC50,NEC8,> 1280 nM
same,IC50,MV4-11,> 1280 nM
same,IC50,LS-1034,> 1280 nM
same,IC50,SJSA-1,> 1280 nM
same,IC50,NCI-H23,> 1280 nM
same,IC50,J-RT3-T3-5,> 1280 nM
same,IC50,Lu-65,> 1280 nM
same,IC50,KALS-1,> 1280 nM
same,IC50,PSN1,> 1280 nM
same,IC50,UACC-257,> 1280 nM
same,IC50,COLO-829,> 1280 nM
same,IC50,KP-N-YS,> 1280 nM
same,IC50,LB831-BLC,> 1280 nM
same,IC50,ONS-76,> 1280 nM
same,IC50,RCC10RGB,> 1280 nM
same,IC50,RPMI-8226,> 1280 nM
same,IC50,BB49-HNC,> 1280 nM
same,IC50,U-87 MG,> 1280 nM
same,IC50,CW-2,> 1280 nM
same,IC50,HD-MY-Z,> 1280 nM
same,IC50,KNS-81-FD,> 1280 nM
same,IC50,HL-60,> 1280 nM
same,IC50,K5,> 1280 nM
same,IC50,HT-144,> 1280 nM
same,IC50,DEL,> 1280 nM
same,IC50,AM-38,> 1280 nM
same,IC50,NCI-H720,> 1280 nM
same,IC50,SK-PN-DW,> 1280 nM
same,IC50,CCRF-CEM,> 1280 nM
same,IC50,MOLT-4,> 1280 nM
same,IC50,D283 Med,> 1280 nM
same,IC50,HCC1187,> 1280 nM
same,IC50,GI-ME-N,> 1280 nM
same,IC50,MEG-01,503 nM
same,IC50,LB996-RCC,> 1280 nM
Nc1ccccc1NC(=O)c1ccc(CNC(=O)OCc2cccnc2)cc1 [ENTINOSTAT],IC50,NCI-H1650,> 5000 nM
same,IC50,KM12,1650 nM
same,IC50,A253 cell line,> 5000 nM
same,IC50,GR-ST,1570 nM
same,IC50,SK-N-DZ,1250 nM
same,IC50,NH-12,> 5000 nM
same,IC50,EKVX,> 5000 nM
same,IC50,LXF-289 cell line,959 nM
same,IC50,SK-LMS-1,> 5000 nM
same,IC50,MHH-PREB-1,607 nM
same,IC50,MHH-NB-11,435 nM
same,IC50,TE-10,> 5000 nM
same,IC50,KG-1,1620 nM
same,IC50,NEC8,135 nM
same,IC50,MV4-11,530 nM
same,IC50,LS-1034,> 5000 nM
same,IC50,SJSA-1,1520 nM
same,IC50,NCI-H23,> 5000 nM
same,IC50,J-RT3-T3-5,337 nM
same,IC50,Lu-65,4150 nM
same,IC50,KALS-1,705 nM
same,IC50,PSN1,1420 nM
same,IC50,UACC-257,3440 nM
same,IC50,COLO-829,1540 nM
same,IC50,KP-N-YS,> 5000 nM
same,IC50,LB831-BLC,1840 nM
same,IC50,ONS-76,582 nM
same,IC50,RCC10RGB,> 5000 nM
same,IC50,RPMI-8226,3140 nM
same,IC50,BB49-HNC,2920 nM
same,IC50,U-87 MG,3040 nM
same,IC50,CW-2,658 nM
same,IC50,HD-MY-Z,1750 nM
same,IC50,KNS-81-FD,> 5000 nM
same,IC50,HL-60,543 nM
same,IC50,K5,470 nM
same,IC50,HT-144,303 nM
same,IC50,DEL,375 nM
same,IC50,AM-38,> 5000 nM
same,IC50,NCI-H720,2170 nM
same,IC50,SK-PN-DW,978 nM
same,IC50,CCRF-CEM,747 nM
same,IC50,MOLT-4,1030 nM
same,IC50,D283 Med,> 5000 nM
same,IC50,HCC1187,4900 nM
same,IC50,GI-ME-N,4060 nM
same,IC50,MEG-01,1220 nM
same,IC50,LB996-RCC,1470 nM
